Assays:
[1] = target: EGFR (ErbB1) (Homo sapiens (Human), UniProt P00533); experiment: Z'-LYTE kinase inhibition assay, EGFR; assay type: biochemical; conditions: read-out: % inhibition against EGFR (Compound at 0.041 μM)
Procedure: Inhibitory activities of compounds against BTK, EGFR and EGFR mutants (EGFR L858R, EGFR T790M, EGFR L858R/T790M), FGFR1, FGFR2, JAK2, JAK3 and KDR were measured by Invitrogen using Z'-LYTE® Method as briefly described in the following. Test Compounds are screened in 1% DMSO (final) in the well. For 10 point titrations, 3-fold serial dilutions are conducted from the starting concentration. All ATP Solutions are diluted to a 4× working concentration in Kinase Buffer (50 mM HEPES pH 7.5, 0.01% BRIJ-35, 10 mM MgCl2, 1 mM EGTA). Peptide/Kinase Mixtures are diluted to a 2× working concentration in the appropriate Kinase Buffers as described below. (i) Peptide/Kinase Mixtures for Measurement of EGFR (ErbB1): The 2×EGFR (ErbB1)/[…] mixture is prepared in 50 mM HEPES pH 7.5, 0.01% BRIJ-35, 10 mM MgCl2. 4 mM MnCl2, 1 mM EGTA, 2 mM DTT. The final 10 μL Kinase Reaction consists of 1.1-5.25 ng EGFR (ErbB1) and 2 μM […] in 50 mM HEPES pH 7.5, 0.01% BRIJ-35, 10 mM MgCl2, 2 mM MnCl2. 1 mM EGTA, 1 mM DTT. After the 1 hour Kinase Reaction incubation, 5 μL of a 1:64 dilution of Development Reagent B is added. Reaction starts by 30-second shaking of mixture consisting of 2.5 μL 4× test compound, […] 2× kinase reaction mixture and 2.5 μL 4×ATP Solution on Bar-coded Corning, low volume NBS, black 384-well plate (Corning Cat. #3676). Then the mixture is incubated for 60-minute at room temperature for the kinase reaction, followed by addition of 5 μL of a 1:1024 dilution of development reagent A and 30-second plate shake. The mixture is then incubated for another 60-minute at room temperature for development reaction. Finally fluorescence is read by plate reader. To determine IC50 of a compound against EGFR, EGFR mutant and other kinases, a series of concentrations of the compound were tested for the inhibition.

[2] = target: EGFR (ErbB1) T790M L858R (Homo sapiens (Human), UniProt P00533, L858R/T790M); experiment: Z'-LYTE kinase inhibition assay, EGFR L858R/T790M; assay type: biochemical; conditions: for inhibition at 0.0137 µM: read-out: % inhibition against EGFR L858R/T790M (Compound at 0.0137 μM); for IC50: read-out: IC50 against EGFR L858R/T790M
Procedure: Inhibitory activities of compounds against BTK, EGFR and EGFR mutants (EGFR L858R, EGFR T790M, EGFR L858R/T790M), FGFR1, FGFR2, JAK2, JAK3 and KDR were measured by Invitrogen using Z'-LYTE® Method as briefly described in the following. Test Compounds are screened in 1% DMSO (final) in the well. For 10 point titrations, 3-fold serial dilutions are conducted from the starting concentration. All ATP Solutions are diluted to a 4× working concentration in Kinase Buffer (50 mM HEPES pH 7.5, 0.01% BRIJ-35, 10 mM MgCl2, 1 mM EGTA). Peptide/Kinase Mixtures are diluted to a 2× working concentration in the appropriate Kinase Buffers as described below. (iv) Peptide/Kinase Mixtures for Measurement of EGFR (ErbB1) T790M L858R: The 2×EGFR (ErbB1) […] mixture is prepared in 50 mM HEPES pH 6.5, 0.01% BRIJ-35, 10 mM MgCl2, 1 mM EGTA, 0.02% NaN3. […] After the 1 hour Kinase Reaction incubation, 5 μL of a 1:64 dilution of Development Reagent B is added. Reaction starts by 30-second shaking of mixture consisting of 2.5 μL 4× test compound, […] 2× kinase reaction mixture and 2.5 μL 4×ATP Solution on Bar-coded Corning, low volume NBS, black 384-well plate (Corning Cat. #3676). Then the mixture is incubated for 60-minute at room temperature for the kinase reaction, followed by addition of 5 μL of a 1:1024 dilution of development reagent A and 30-second plate shake. The mixture is then incubated for another 60-minute at room temperature for development reaction. Finally fluorescence is read by plate reader. To determine IC50 of a compound against EGFR, EGFR mutant and other kinases, a series of concentrations of the compound were tested for the inhibition.

[3] = system: A431 cells; experiment: cells; conditions: Homo sapiens, A-431, 72 h, read-out: IC50 in A431 cells
Procedure: Taxol (as a positive control. Sigma) and compounds were dissolved in DMSO (Sigma), and the final concentration of DMSO in the medium was 1%. Tumor cells were plated in 96-well plates at densities of about 4000 cells/well of a 96-well plate and allowed to adhere/grow for 24 h. They were then treated with various concentrations of drug for 72 h, 3-(4,5-Dimethylthiazol-2-yl)-2,5-diphenyltetrazolium bromide (MTT, Sigma) was used to determine the number of viable cells at the time of compound addition and the number of cells remaining after 72 h compound exposure. The number of cells remaining after 72 h was compared to the number of viable cells at the time of compound addition by measuring the absorbance at 570 nm, allowing for the calculation of growth inhibition.
(§1) All concentrations of compounds were tested in triplicate and controls were averaged over 4 wells. IC50 was calculated by plotting the concentration of compound vs the percentage of inhibition in treated wells using GraphPad Prism 5.
The scale utilized in Tables 5 is as follows: +++ less than 100 nM; ++ between 100 nM and 500 nM; and + greater than 500 nM.

[4] = system: H1975 cells; experiment: Inhibition of cancer cell growth, MTT assay, H1975; conditions: Homo sapiens, NCI-H1975, 72 h, read-out: IC50 in H1975 cells
Procedure: Inhibition of cell growth by compounds was measured using MTT assay (Mosmann, T., Journal of Immunological Methods, 1983, 65, 55-63). Tumor cell lines were purchased from ATCC (American Type Culture Collection, Manassas, Va.). All cell lines were maintained in RPMI 1640 (Hyclone) supplemented with 10% fetal bovine serum (FBS, Hyclone), glutamine (2 mM, Hyclone), and antibiotics (penicillin 100 U/mL and streptomycin 50 μg/mL) at 37° C. in a humidified atmosphere of 5% CO2 in air. Taxol (as a positive control. Sigma) and compounds were dissolved in DMSO (Sigma), and the final concentration of DMSO in the medium was 1%. Tumor cells were plated in 96-well plates at densities of about 4000 cells/well of a 96-well plate and allowed to adhere/grow for 24 h. They were then treated with various concentrations of drug for 72 h, 3-(4,5-Dimethylthiazol-2-yl)-2,5-diphenyltetrazolium bromide (MTT, Sigma) was used to determine the number of viable cells at the time of compound addition and the number of cells remaining after 72 h compound exposure. The number of cells remaining after 72 h was compared to the number of viable cells at the time of compound addition by measuring the absorbance at 570 nm, allowing for the calculation of growth inhibition.
as §1

EGFR (ErbB1) T790M L858R, sequence (P00533 25-1210 T790M/L858R): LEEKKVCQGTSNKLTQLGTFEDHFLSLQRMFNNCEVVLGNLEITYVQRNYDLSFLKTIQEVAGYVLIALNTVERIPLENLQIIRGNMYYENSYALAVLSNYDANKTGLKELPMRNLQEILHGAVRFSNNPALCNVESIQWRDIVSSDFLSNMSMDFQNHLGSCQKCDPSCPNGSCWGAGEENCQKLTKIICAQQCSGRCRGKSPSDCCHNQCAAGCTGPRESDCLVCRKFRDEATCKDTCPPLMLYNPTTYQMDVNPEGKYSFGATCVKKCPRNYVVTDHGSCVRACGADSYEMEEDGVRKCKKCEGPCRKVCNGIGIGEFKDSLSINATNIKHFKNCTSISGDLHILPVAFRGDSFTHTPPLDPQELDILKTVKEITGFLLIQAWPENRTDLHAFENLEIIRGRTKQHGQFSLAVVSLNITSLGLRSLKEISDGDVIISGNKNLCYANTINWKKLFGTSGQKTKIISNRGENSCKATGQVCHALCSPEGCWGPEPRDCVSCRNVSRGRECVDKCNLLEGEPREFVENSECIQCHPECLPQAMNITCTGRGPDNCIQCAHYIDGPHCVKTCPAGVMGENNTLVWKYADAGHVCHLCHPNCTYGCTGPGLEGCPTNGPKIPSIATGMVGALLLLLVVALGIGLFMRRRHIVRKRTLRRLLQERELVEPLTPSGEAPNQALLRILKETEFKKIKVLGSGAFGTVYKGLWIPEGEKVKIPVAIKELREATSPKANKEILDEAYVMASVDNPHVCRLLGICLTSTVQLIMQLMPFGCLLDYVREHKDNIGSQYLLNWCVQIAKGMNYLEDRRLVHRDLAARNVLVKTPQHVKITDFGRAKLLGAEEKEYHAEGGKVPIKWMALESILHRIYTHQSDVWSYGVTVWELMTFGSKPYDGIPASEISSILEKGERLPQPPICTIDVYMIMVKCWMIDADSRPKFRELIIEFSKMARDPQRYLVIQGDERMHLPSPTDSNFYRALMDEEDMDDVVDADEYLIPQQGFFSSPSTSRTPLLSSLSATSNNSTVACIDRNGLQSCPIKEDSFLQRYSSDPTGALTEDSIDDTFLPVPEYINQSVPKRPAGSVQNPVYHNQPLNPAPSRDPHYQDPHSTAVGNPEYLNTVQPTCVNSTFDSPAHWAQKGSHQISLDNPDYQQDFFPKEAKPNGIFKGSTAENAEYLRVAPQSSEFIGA
EGFR (ErbB1), sequence (P00533 25-1210): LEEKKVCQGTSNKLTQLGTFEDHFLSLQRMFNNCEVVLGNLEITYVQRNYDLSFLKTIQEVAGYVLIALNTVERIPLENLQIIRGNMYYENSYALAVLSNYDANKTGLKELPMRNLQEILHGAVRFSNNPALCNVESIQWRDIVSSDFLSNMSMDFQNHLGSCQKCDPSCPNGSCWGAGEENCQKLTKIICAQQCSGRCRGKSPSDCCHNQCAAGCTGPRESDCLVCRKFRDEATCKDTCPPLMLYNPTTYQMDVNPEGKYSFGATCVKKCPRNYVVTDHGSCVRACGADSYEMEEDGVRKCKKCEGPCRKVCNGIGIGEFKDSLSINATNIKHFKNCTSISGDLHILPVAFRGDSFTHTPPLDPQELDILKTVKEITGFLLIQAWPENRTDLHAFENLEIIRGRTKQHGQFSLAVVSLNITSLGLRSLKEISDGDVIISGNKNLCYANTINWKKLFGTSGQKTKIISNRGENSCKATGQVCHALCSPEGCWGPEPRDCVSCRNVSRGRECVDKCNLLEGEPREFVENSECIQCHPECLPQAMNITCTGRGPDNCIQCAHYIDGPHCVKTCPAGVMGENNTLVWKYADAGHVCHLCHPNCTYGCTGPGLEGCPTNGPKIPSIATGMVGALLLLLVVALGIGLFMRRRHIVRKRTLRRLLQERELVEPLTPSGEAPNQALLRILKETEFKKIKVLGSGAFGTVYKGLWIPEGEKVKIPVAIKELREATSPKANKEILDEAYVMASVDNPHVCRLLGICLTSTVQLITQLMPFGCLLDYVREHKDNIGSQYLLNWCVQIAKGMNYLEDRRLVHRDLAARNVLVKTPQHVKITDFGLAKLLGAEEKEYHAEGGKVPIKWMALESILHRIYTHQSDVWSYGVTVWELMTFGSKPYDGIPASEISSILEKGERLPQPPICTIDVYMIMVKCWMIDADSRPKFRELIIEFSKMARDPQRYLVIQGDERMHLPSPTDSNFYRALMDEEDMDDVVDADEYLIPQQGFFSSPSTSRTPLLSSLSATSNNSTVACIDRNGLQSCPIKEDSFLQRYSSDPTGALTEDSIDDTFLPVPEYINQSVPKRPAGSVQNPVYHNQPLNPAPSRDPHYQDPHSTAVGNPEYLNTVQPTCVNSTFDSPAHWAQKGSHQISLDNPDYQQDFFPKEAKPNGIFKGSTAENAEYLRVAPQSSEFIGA

SMILES	inhibition at 0.041 µM [1] [%]	inhibition at 0.0137 µM [2] [%]	IC50 [3] [nM]	IC50 [4] [nM]	IC50 [2] [nM]
C=CC(=O)Nc1cccc(-c2cccc3cnc(Nc4ccc(N5CCN(C)CC5)cc4Cl)nc23)c1 [Example C043, N-(3-(2-((2-chloro-4-(4-methylpiperazin-1-yl)phenyl)amino)quinazolin-8-yl)phenyl)acrylamide]	> 50	> 50	> 500	100 to 500	
C=CC(=O)Nc1cccc(-c2cccc3cnc(Nc4ccc(N5CCN(C)CC5)cc4)nc23)c1C#N [Example C068, N-(2-cyano-3-(2-((4-(4-methylpiperazin-1-yl)phenyl)amino)quinazolin-8-yl)phenyl)acrylamide]	> 50	> 50	> 500	100 to 500	< 100
C=CC(=O)Nc1cncc(-c2cccc3cnc(Nc4ccc(N5CCN(C)CC5)nc4)nc23)c1 [Example C047, N-(5-(2-((6-(4-methylpiperazin-1-yl)pyridin-3-yl)amino)quinazolin-8-yl)pyridin-3-yl)acrylamide]	> 50	> 50	> 500	100 to 500	
C=CC(=O)Nc1cccc(-c2cccc3cnc(Nc4ccc(N[C@@H]5CCN(C)C5)cc4)nc23)c1 [Example C129, (R)-N-(3-(2-((4-((1-methylpyrrolidin-3-yl)amino)phenyl)amino)quinazolin-8-yl)phenyl)acrylamide]	> 50	> 50	< 100	< 100	< 100
C=CC(=O)Nc1cccc(-c2cccc3cnc(Nc4ccc(OC5CN(CCF)C5)cc4)nc23)c1 [Example C078, N-(3-(2-((4-((1-(2-fluoroethyl)azetidin-3-yl)oxy)phenyl)amino)quinazolin-8-yl)phenyl)acrylamide]	> 50	> 50	> 500	< 100	< 100
C=CC(=O)Nc1cccc(-c2cccc3cnc(Nc4ccc(N5CCN(C(=O)NC)CC5)cc4)nc23)c1 [Example C083, 4-(4-((8-(3-acrylamidophenyl)quinazolin-2-yl)amino)phenyl)-N-methylpiperazine-1-carboxamide]	< 50	> 50		100 to 500	
C=CC(=O)Nc1cccc(-c2cccc3cnc(Nc4ccc(-n5ccnc5)cc4)nc23)c1 [Example C094, N-(3-(2-((4-(1H-imidazol-1-yl)phenyl)amino)quinazolin-8-yl)phenyl)acrylamide]	< 50	< 50		100 to 500	
C=CC(=O)Nc1cccc(-c2cccc3cnc(Nc4ccc(N5CCN(C)CC5)cc4)nc23)c1C(=O)OC [Example C101, methyl 2-acrylamido-6-(2-((4-(4-methylpiperazin-1-yl)phenyl)amino)quinazolin-8-yl)benzoate]	< 50	> 50		< 100	
C=CC(=O)Nc1cccc(-c2cccc3cnc(Nc4cnc(N5CCN(C)CC5)c(C#N)c4)nc23)c1 [Example C086, N-(3-(2-((5-cyano-6-(4-methylpiperazin-1-yl)pyridin-3-yl)amino)quinazolin-8-yl)phenyl)acrylamide]	< 50	> 50		100 to 500	
C=CC(=O)Nc1cccc(-c2cccc3cnc(Nc4ccc(N5CCNC5=O)cc4)nc23)c1 [Example C097, N-(3-(2-((4-(2-oxoimidazolidin-1-yl)phenyl)amino)quinazolin-8-yl)phenyl)acrylamide]	< 50	< 50		100 to 500	
C=CC(=O)Nc1cccc(-c2cccc3cnc(Nc4ccc(N(C)CCF)cc4)nc23)c1 [Example C064, N-(3-(2-((4-((2-fluoroethyl)(methyl)amino)phenyl)amino)quinazolin-8-yl)phenyl)acrylamide]	< 50	< 50		> 500	
C=CC(=O)Nc1cccc(-c2cccc3cnc(Nc4ccc(N5CCN(CC(N)=O)CC5)cc4)nc23)c1 [Example C150, N-(3-(2-((4-(4-(2-amino-2-oxoethyl)piperazin-1-yl)phenyl)amino)quinazolin-8-yl)phenyl)acrylamide]	< 50	< 50		< 100	
C=CC(=O)Nc1cccc(-c2cccc3cnc(Nc4ccc(N5CCN(CC(C)(C)O)CC5)cc4F)nc23)c1 [Example C149, N-(3-(2-((2-fluoro-4-(4-(2-hydroxy-2-methylpropyl)piperazin-1-yl)phenyl)amino)quinazolin-8-yl)phenyl)acrylamide]	< 50	< 50		< 100	
C=CC(=O)Nc1cccc(-c2cccc3cnc(Nc4ccc(N5CCN(C(=O)CO)CC5)cc4)nc23)c1 [Example C082, N-(3-(2-((4-(4-(2-hydroxyacetyl)piperazin-1-yl)phenyl)amino)quinazolin-8-yl)phenyl)acrylamide]	< 50	> 50		100 to 500	
C=CC(=O)Nc1cccc(-c2cccc3cnc(Nc4ccc(N5CCN(C)C(C(=O)O)C5)cc4)nc23)c1 (stereo not drawn) [Example C090, 4-(4-((8-(3-acrylamidophenyl)quinazolin-2-yl)amino)phenyl)-1-methylpiperazine-2-carboxylic acid]	< 50	> 50		100 to 500	
C=CC(=O)Nc1cccc(-c2cccc3cnc(Nc4ccc(N5CCN(CC(N)=O)CC5)c(F)c4)nc23)c1 [Example C164, N-(3-(2-((4-(4-(2-amino-2-oxoethyl)piperazin-1-yl)-3-fluorophenyl)amino)quinazolin-8-yl)phenyl)acrylamide]	< 50	< 50		100 to 500	
C=CC(=O)Nc1cccc(-c2cccc3cnc(Nc4ccc(N[C@@H]5CCN(C(C)=O)C5)cc4)nc23)c1 [Example C130, (R)-N-(3-(2-((4-((1-acetylpyrrolidin-3-yl)amino)phenyl)amino)quinazolin-8-yl)phenyl)acrylamide]	< 50	< 50		< 100	
C=CC(=O)Nc1ccc(F)c(-c2cccc3cnc(Nc4ccc(N5CCN(C)CC5)cc4)nc23)c1 [Example C067, N-(4-fluoro-3-(2-((4-(4-methylpiperazin-1-yl)phenyl)amino)quinazolin-8-yl)phenyl)acrylamide]	> 50	> 50		< 100	< 100
CN(C)C/C=C/C(=O)Nc1cccc(-c2cccc3cnc(Nc4ccc(N5CCN(C)CC5)cc4)nc23)c1 [Example C052, (E)-4-(dimethylamino)-N-(3-(2-((4-(4-methylpiperazin-1-yl)phenyl)amino)quinazolin-8-yl)phenyl)but-2-enamide]	< 50	> 50		100 to 500	
